According to the supplement of paper PMC11208160:

Assay: recombinant barcode read abundance after kanamycin selection (control-corrected) (log10(CPM+1)); higher = more efficient recombination; sequences stand for … in AGTGCAGAGAAAATCGGCCAGTTTTCTCTGCCTGCAGTCCGCATGCCGT…AGATTTATGCAGCGGACTGCCTTTCTCCCAAAGTGATAAACCGGACAGTATCATGGACCGGTTTTCCCGGTAATCCGTATTTGCAAGGTTGGTTTCACT; site = the 11-nt target
Method in brief: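 For this pooled screen, each oligo contained a promoter, a target, a barcode and the J23119-driven first 104 bases of the bridge RNA. Gibson cloning placed it into a vector supplying the remaining 73 bp and a T7-inducible recombinase, and the pool was co-electroporated into E. coli with a donor plasmid. Recombination efficiency is derived from barcode counts per million at recombinant junctions after averaging and control correction, and is expressed on a log scale as log10(CPM+1), with selection on chloramphenicol/ampicillin/kanamycin plus 0.1 mM IPTG against a chloramphenicol/ampicillin LB agar control.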
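Further: IS621 recombinase and bridge RNA in Escherichia coli cells.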

Sequence	recombinant barcode read abundance (log10)
TAATCGGCTTGGGTTCTAACCTGTTGCCT (site TAATCGACTAG)	0.0571
TAATCGGCTTGGGTTCTAACCTGTTGCCT (site TAATCGCCTAG)	0.0352
TAATCGGCTTGGGTTCTAACCTGTTGCCT (site TAATCGGCTAG)	0.453
TAATCGGCTTGGGTTCTAACCTGTTGCCT (site TAATCGTCTAG)	0.111
TAATCGTCTTGGGTTCTAACCTGTTGCCT (site TAATCGACTAG)	0.0844
TAATCGTCTTGGGTTCTAACCTGTTGCCT (site TAATCGCCTAG)	0.0275
TAATCGTCTTGGGTTCTAACCTGTTGCCT (site TAATCGGCTAG)	0.0826
TAATCGTCTTGGGTTCTAACCTGTTGCCT (site TAATCGTCTAG)	1.84
TAATGATCTTGGGTTCTAACCTGTTGCCT (site TAATGATCTAG)	0.635
TAATGATCTTGGGTTCTAACCTGTTGCCT (site TACTGATCTAG)	0.0744
TAATGATCTTGGGTTCTAACCTGTTGCCT (site TAGTGATCTAG)	0.15
TAATGATCTTGGGTTCTAACCTGTTGCCT (site TATTGATCTAG)	0.155
TAATGCCCTTGGGTTCTAACCTGTTGCCT (site TAATGCCCTAG)	0.634
TAATGCCCTTGGGTTCTAACCTGTTGCCT (site TATTGCCCTAG)	0.13
TAATGTTCTTGGGTTCTAACCTGTTGCAT (site TAATGGTCTAT)	0.0924
TAATGTTCTTGGGTTCTAACCTGTTGCAT (site TAATGTTCTAT)	1.14
TAATTGTCTTGGGTTCTAACCTGTTGCGT (site CAATTGTCTAC)	0.725
TAATTGTCTTGGGTTCTAACCTGTTGCGT (site TAATTGTCTAC)	2.45
TAATTTGCTTGGGTTCTAACCTGTTGCCT (site CGCGAGTCTCA)	0.215
TAATTTGCTTGGGTTCTAACCTGTTGCCT (site TAATTTGCTAG)	0.182
TACAAGCCTTGGGTTCTAACCTGTTGCGG (site TACAAGCCTCC)	1.91
TACAAGCCTTGGGTTCTAACCTGTTGCGG (site TACAAGTCTCT)	0.051

Sequence	recombinant barcode read abundance (log10)
TACAAGTCTTGGGTTCTAACCTGTTGCAG (site TACAAGCCTCC)	0.11
TACAAGTCTTGGGTTCTAACCTGTTGCAG (site TACAAGTCTCT)	1.47
TACACTACTTGGGTTCTAACCTGTTGCAT (site TACACTACTAT)	0.131
TACACTACTTGGGTTCTAACCTGTTGCAT (site TACCCTACTAT)	0.134
TACAGACCTTGGGTTCTAACCTGTTGCAG (site ACGGAGTCTTA)	0.128
TACAGACCTTGGGTTCTAACCTGTTGCAG (site TACAGACCTCT)	1.28
TACAGTCCTTGGGTTCTAACCTGTTGCCT (site TACAGTCCTAG)	1.06
TACAGTCCTTGGGTTCTAACCTGTTGCCT (site TGCACTCCTAG)	0.276
TACCACTCTTGGGTTCTAACCTGTTGCCT (site AACCACTCTAG)	0.335
TACCACTCTTGGGTTCTAACCTGTTGCCT (site CACCACTCTAG)	0.887
TACCACTCTTGGGTTCTAACCTGTTGCCT (site GACCACTCTAG)	0.13
TACCACTCTTGGGTTCTAACCTGTTGCCT (site TACCACTCTAG)	2.24
TACCAGTCTTGGGTTCTAACCTGTTGCTT (site TACCAGTCTAA)	1.74
TACCAGTCTTGGGTTCTAACCTGTTGCTT (site TACCCGTCTAA)	0.0102
TACCAGTCTTGGGTTCTAACCTGTTGCTT (site TACCGGTCTAA)	0.293
TACCAGTCTTGGGTTCTAACCTGTTGCTT (site TACCTGTCTAA)	0.111
TACCCGCCTTGGGTTCTAACCTGTTGCTA (site TACCCGCCTTA)	0.59
TACCCGCCTTGGGTTCTAACCTGTTGCTA (site TACCCTACTTA)	0.066
TACCCGTCTTGGGTTCTAACCTGTTGCTT (site TACCAGTCTAA)	0
TACCCGTCTTGGGTTCTAACCTGTTGCTT (site TACCCGTCTAA)	0.399
TACCCGTCTTGGGTTCTAACCTGTTGCTT (site TACCGGTCTAA)	0.168
TACCCGTCTTGGGTTCTAACCTGTTGCTT (site TACCTGTCTAA)	0.0134

Sequence	recombinant barcode read abundance (log10)
TACCGGCCTTGGGTTCTAACCTGTTGCTT (site TACCGGACTAC)	0.0691
TACCGGCCTTGGGTTCTAACCTGTTGCTT (site TACCGGCCTAA)	0.444
TACCTACCTTGGGTTCTAACCTGTTGCGA (site ATAACTACTAA)	0.0536
TACCTACCTTGGGTTCTAACCTGTTGCGA (site TACCTACCTTC)	1.92
TACCTATCTTGGGTTCTAACCTGTTGCGT (site TACCTAGCTAC)	0.0617
TACCTATCTTGGGTTCTAACCTGTTGCGT (site TACCTATCTAC)	1.83
TACGAACCTTGGGTTCTAACCTGTTGCGT (site TACGAACCTAC)	2.94
TACGAACCTTGGGTTCTAACCTGTTGCGT (site TAGGAGCCTAC)	0.335
TACGCCTCTTGGGTTCTAACCTGTTGCTA (site TACGCCTCTTA)	1.31
TACGCCTCTTGGGTTCTAACCTGTTGCTA (site TGCGCCTCTCA)	0.299
TACGGGGCTTGGGTTCTAACCTGTTGCCT (site TACGAGGCTAG)	0.166
TACGGGGCTTGGGTTCTAACCTGTTGCCT (site TACGCGGCTAG)	0.139
TACGGGGCTTGGGTTCTAACCTGTTGCCT (site TACGGGGCTAG)	0.572
TACGGGGCTTGGGTTCTAACCTGTTGCCT (site TACGTGGCTAG)	0.414
TACGGGTCTTGGGTTCTAACCTGTTGCCT (site AAGGGGTCTAG)	0.0993
TACGGGTCTTGGGTTCTAACCTGTTGCCT (site TACGGGTCTAG)	1.16
TACTAAACTTGGGTTCTAACCTGTTGCCT (site TACTAAACTAG)	0.267
TACTAAACTTGGGTTCTAACCTGTTGCCT (site TACTCAACTAG)	0.0276
TACTAAACTTGGGTTCTAACCTGTTGCCT (site TACTGAACTAG)	0.0606
TACTAAACTTGGGTTCTAACCTGTTGCCT (site TACTTAACTAG)	0.00687
TACTAAGCTTGGGTTCTAACCTGTTGCAT (site TACTAAGCTAA)	0.149
TACTAAGCTTGGGTTCTAACCTGTTGCAT (site TACTAAGCTAC)	0.0997

Sequence	recombinant barcode read abundance (log10)
TACTAAGCTTGGGTTCTAACCTGTTGCAT (site TACTAAGCTAG)	0.274
TACTAAGCTTGGGTTCTAACCTGTTGCAT (site TACTAAGCTAT)	0.523
TACTAAGCTTGGGTTCTAACCTGTTGCGT (site TACTAAGCTAA)	0.238
TACTAAGCTTGGGTTCTAACCTGTTGCGT (site TACTAAGCTAC)	1.1
TACTAAGCTTGGGTTCTAACCTGTTGCGT (site TACTAAGCTAG)	0.122
TACTAAGCTTGGGTTCTAACCTGTTGCGT (site TACTAAGCTAT)	0.149
TACTCAACTTGGGTTCTAACCTGTTGCCT (site TACTAAACTAG)	0.376
TACTCAACTTGGGTTCTAACCTGTTGCCT (site TACTCAACTAG)	0.0463
TACTCAACTTGGGTTCTAACCTGTTGCCT (site TACTGAACTAG)	0.0105
TACTCAACTTGGGTTCTAACCTGTTGCCT (site TACTTAACTAG)	0
TACTCACCTTGGGTTCTAACCTGTTGCTT (site ACTGGTTCTCG)	0.022
TACTCACCTTGGGTTCTAACCTGTTGCTT (site TACTCACCTAA)	0.287
TACTGATCTTGGGTTCTAACCTGTTGCCT (site TAATGATCTAG)	0.0666
TACTGATCTTGGGTTCTAACCTGTTGCCT (site TACTGATCTAG)	0.461
TACTGATCTTGGGTTCTAACCTGTTGCCT (site TAGTGATCTAG)	0.0404
TACTGATCTTGGGTTCTAACCTGTTGCCT (site TATTGATCTAG)	0.0711
TACTTCGCTTGGGTTCTAACCTGTTGCCT (site CACATCGCTAG)	0.042
TACTTCGCTTGGGTTCTAACCTGTTGCCT (site TACTTCGCTAG)	0.193
TAGAAAGCTTGGGTTCTAACCTGTTGCCA (site TAGAAAGCTTG)	0.633
TAGAAAGCTTGGGTTCTAACCTGTTGCCA (site TAGGAAGCTTC)	0.139
